In patent US20100130738A1 (priority 2007, published 2010):

How the values were obtained:
[1] = target: T1, PDE4Bcat (Homo sapiens, UniProt Q07343); assay: Phosphodiesterase inhibitory activity, recombinant PDE4Bcat, [3H]cAMP; type: biochemical; settings: 30° C. 20 minutes, read-out: IC50 (μmol/L) PDE4
T1 construct: made in house; host or cells: Sf9 insect cells (baculovirus, Bac-to-Bac / Gateway)

[2] = target: T2, PDE3A catalytic domain (PDE3Acat) (Homo sapiens, UniProt Q14432); assay: Phosphodiesterase inhibitory activity, recombinant PDE3Acat, [3H]cAMP; type: biochemical; settings: 30° C. 20 minutes, read-out: IC50 (μmol/L) PDE3
T2 construct: isolate the cDNA of a PDE3A catalytic domain; made in house; host or cells: Sf9 insect cells (baculovirus, Bac-to-Bac / Gateway)

[3] = tested on: histamine-induced bronchoconstriction in guinea pigs; assay: Histamine-induced bronchoconstriction reaction in guinea pigs; type: in vivo, guinea pig; settings: Cavia porcellus, iv, 0.5 min, compound 0.3 mg/kg i.v., measured 30 seconds after administration, histamine 12.5 μg/kg i.v., read-out: Inhibition rate (histamine-induced bronchoconstriction)
[4] = tested on: LPS acute inflammation model in rats; assay: LPS acute inflammation model in rats (total leukocytes in BALF); type: in vivo, rat; settings: 10 mg/kg orally one hour before LPS inhalation, BALF 3 hours after LPS inhalation
Protocol: 10 mg/kg of the compounds were orally administered to rats one hour before inhalation of a lipopolysaccharide from E. coli serotype 055:B5 (LPS), and the rats were made to inhale 50 ml of the LPS solution nebulized using a nebulizer for 30 minutes. Then, 3 hours after LPS inhalation, the rats were euthanized with 20% urethane (5 ml/rat, i.p.). 5 ml of physiological saline for bronchoalveolar lavage was injected into the bronchial tubes and alveoli through the airway, and the bronchial tubes and alveoli were washed three times using a 5 mL syringe. This operation was repeated twice, and the solution was collected as bronchoalveolar lavage fluid (BALF). The collected BALF was centrifuged at 1200 rpm and 4° C. for 10 minutes (Hirtachi; himac CR 5 DL). The pellet was re-suspended in 10 ml of a 0.1% bovine serum albumin-physiological saline, and an equivalent amount of Turk's solution was added thereto to stain leukocytes. The total number of leukocytes was counted under a microscope to calculate the inhibition rate. Further, the indications were as follows: inhibition rate≧80% (+++), 80%≧inhibition rate≧60% (++), and 60%>inhibition rate≧40% (+).

T2 sequence (Q14432 674-1093 limits assumed): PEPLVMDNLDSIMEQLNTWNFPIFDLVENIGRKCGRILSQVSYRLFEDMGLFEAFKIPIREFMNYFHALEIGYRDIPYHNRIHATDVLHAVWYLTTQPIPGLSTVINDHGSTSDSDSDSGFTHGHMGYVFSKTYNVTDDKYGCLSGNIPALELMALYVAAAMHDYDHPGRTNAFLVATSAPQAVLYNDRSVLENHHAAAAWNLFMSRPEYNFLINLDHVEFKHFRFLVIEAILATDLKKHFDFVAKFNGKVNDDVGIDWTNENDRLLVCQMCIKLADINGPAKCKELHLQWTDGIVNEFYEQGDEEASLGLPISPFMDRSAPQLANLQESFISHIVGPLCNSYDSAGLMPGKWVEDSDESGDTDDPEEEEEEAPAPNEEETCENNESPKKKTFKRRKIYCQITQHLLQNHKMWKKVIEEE
T1 sequence (Q07343 330-659 limits assumed): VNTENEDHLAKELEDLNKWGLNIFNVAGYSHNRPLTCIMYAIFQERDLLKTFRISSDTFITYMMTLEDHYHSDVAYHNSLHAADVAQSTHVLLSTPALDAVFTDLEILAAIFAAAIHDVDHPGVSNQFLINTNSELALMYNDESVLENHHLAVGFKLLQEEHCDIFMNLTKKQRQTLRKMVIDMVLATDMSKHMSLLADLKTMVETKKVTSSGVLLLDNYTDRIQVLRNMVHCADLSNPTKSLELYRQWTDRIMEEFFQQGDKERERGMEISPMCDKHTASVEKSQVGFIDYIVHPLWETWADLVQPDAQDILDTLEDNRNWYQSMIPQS

melting point [°C] | IC50 [1] [µmol/L] | IC50 [2] [µmol/L] | Structure (SMILES) | inhibition in vivo at 0.3 mg/kg [3] [%] | Inhibition rate (total number of leukocytes in BALF) [4]
176 to 177 | 0.1 to 1 | < 0.01 | COc1ccc(C2=NN(CCCCOc3ccc(C4=NNC(=O)CC4)c(F)c3F)C(=O)C2(C)C)c2cc(C(F)(F)F)sc12 [Example 222, 2-[4-[2,3-Difluoro-4-(6-oxo-1,4,5,6-tetrahydropyridazin-3-yl)phenoxy]butyl]-5-(7-methoxy-2-trifluoromethylbenzo[b]thiophen-4-yl)-4,4-dimethyl-2,4-dihydro-pyrazol-3-one] |  | 
137 to 138 | 0.01 to 0.1 | < 0.01 | COc1ccc(C2=NN(CCCCOc3ccc(C4=NNC(=O)CC4C)c(F)c3F)C(=O)C2(C)C)c2cc(C(F)(F)F)sc12 (stereo not shown) [Example 224, 2-[4-[2,3-Difluoro-4-(4-methyl-6-oxo-1,4,5,6-tetrahydropyridazin-3-yl)phenoxy]butyl]-5-(7-methoxy-2-trifluoromethylbenzo[b]thiophen-4-yl)-4,4-dimethyl-2,4-dihydro-pyrazol-3-one] |  | 
 | 0.01 to 0.1 | < 0.01 | COc1ccc(C2=NN(CCCCOc3ccc(C4=NNC(=O)C4(C)C)c(F)c3F)C(=O)C2(C)C)c2ccc(C)nc12 [Example 197, 2-[4-[2,3-Difluoro-4-(4,4-dimethyl-5-oxo-4,5-dihydro-1H-pyrazol-3-yl)phenoxy]butyl]-5-(8-methoxy-2-methylquinolin-5-yl)-4,4-dimethyl-2,4-dihydro-pyrazol-3-one] | ≥ 90 | +++ (inhibition rate≧80%)
167 to 168 | 0.01 to 0.1 | 0.01 to 0.1 | COc1ccc(C2=NN(CCCCOc3ccc(C4=NNC(=O)C4(C)C)c(F)c3F)C(=O)C2(C)C)c2cc(C(F)(F)F)sc12 [Example 223, 2-[4-[2,3-Difluoro-4-(4,4-dimethyl-5-oxo-4,5-dihydro-1H-pyrazol-3-yl)phenoxy]butyl]-5-(7-methoxy-2-trifluoromethylbenzo[b]thiophen-4-yl)-4,4-dimethyl-2,4-dihydro-pyrazol-3-one] |  | 
